Earlier results as cited in patent publication EP0731703B1, “LIPOSOMAL FORMULATIONS CONTAINING VIDARABINE OR ITS DERIVATIVES” (INSTITUTO NACIONAL DE ENGENHARIA E TECNOLOGIA …, priority 1993, dated 1995).

Details: literature (Schabel 1968; LePage et al. 1972)

SMILES | aqueous solubility
Nc1ncnc2c1ncn2[C@@H]1O[C@H](CO)[C@@H](O)[C@@H]1O [ARA-A, 9-β-D-arabinofuranosyladenine] | poor aqueous solubility
Nc1ncnc2c1ncn2[C@@H]1O[C@H](COP(=O)(O)O)[C@@H](O)[C@@H]1O [ARA-AMP, 9-β-D--arabinofuranosyladenine monophosphate] | water-soluble
